Assay results as given in PubChem BioAssay (NCI).
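Abbreviation: GI50, concentration required for 50% inhibition of growth. The concentration for full growth arrest is given as TGI.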

Key:
Assay in all cases: growth of human tumour cells (NCI), 384-well format
HOP-62 NSCLC = test system: HOP-62 NSCLC
T-47D breast = test system: T-47D breast
SK-OV-3 ovarian = test system: SK-OV-3 ovarian
MOLT-4 leukemia = test system: MOLT-4 leukemia
TK-10 renal = test system: TK-10 renal
LOX IMVI melanoma = test system: LOX IMVI melanoma
MCF7 breast = test system: MCF7 breast
UO-31 renal = test system: UO-31 renal
OVCAR-5 ovarian = test system: OVCAR-5 ovarian
SF-539 CNS = test system: SF-539 CNS
NCI-H226 lung = test system: NCI-H226 lung
DU-145 prostate = test system: DU-145 prostate
HCT-15 colon = test system: HCT-15 colon
MDA-MB-231 breast = test system: MDA-MB-231 breast
SK-MEL-28 melanoma = test system: SK-MEL-28 melanoma
MDA-MB-468 breast = test system: MDA-MB-468 breast
SW-620 colon = test system: SW-620 colon
RPMI-8226 leukemia = test system: RPMI-8226 leukemia
SF-295 CNS = test system: SF-295 CNS
SNB-19 CNS = test system: SNB-19 CNS
NCI-H23 lung = test system: NCI-H23 lung
K-562 leukemia = test system: K-562 leukemia
UACC-62 melanoma = test system: UACC-62 melanoma
SF-268 CNS = test system: SF-268 CNS
CAKI-1 renal = test system: CAKI-1 renal
SR leukemia = test system: SR leukemia
MALME-3M melanoma = test system: MALME-3M melanoma
RXF 393 renal = test system: RXF 393 renal
UACC-257 melanoma = test system: UACC-257 melanoma
NCI-H522 lung = test system: NCI-H522 lung
NCI/ADR-RES ovarian = test system: NCI/ADR-RES ovarian
SN12C renal = test system: SN12C renal
NCI-H322M lung = test system: NCI-H322M lung
IGROV1 ovarian = test system: IGROV1 ovarian
HCC-2998 colon = test system: HCC-2998 colon
OVCAR-4 ovarian = test system: OVCAR-4 ovarian
HL-60(TB) leukemia = test system: HL-60(TB) leukemia
SNB-75 CNS = test system: SNB-75 CNS
MDA-MB-435 melanoma = test system: MDA-MB-435 melanoma
A498 renal = test system: A498 renal
KM12 colon = test system: KM12 colon
M14 melanoma = test system: M14 melanoma
HOP-92 NSCLC = test system: HOP-92 NSCLC
CCRF-CEM leukemia = test system: CCRF-CEM leukemia
NCI-H460 NSCLC = test system: NCI-H460 NSCLC
COLO 205 colon = test system: COLO 205 colon
A549 NSCLC = test system: A549 NSCLC
HS 578T breast = test system: HS 578T breast
EKVX NSCLC = test system: EKVX NSCLC
786-0 renal = test system: 786-0 renal
ACHN renal = test system: ACHN renal
SK-MEL-5 melanoma = test system: SK-MEL-5 melanoma
BT-549 breast = test system: BT-549 breast
OVCAR-3 ovarian = test system: OVCAR-3 ovarian
HT29 colon = test system: HT29 colon
OVCAR-8 ovarian = test system: OVCAR-8 ovarian
PC-3 prostate = test system: PC-3 prostate

Cc1nc(-c2cnc(NC(C)C)n(C)c2=O)ccc1Oc1ccnc(-c2cnn(C)c2)c1
GI50 (HOP-62 NSCLC): 14.4 µM
TGI (HOP-62 NSCLC): 39.6 µM
GI50 (T-47D breast): 5.73 µM
TGI (T-47D breast): 28.7 µM
GI50 (SK-OV-3 ovarian): 11.5 µM
TGI (SK-OV-3 ovarian): 25.5 µM
GI50 (MOLT-4 leukemia): 1.87 µM
TGI (MOLT-4 leukemia): 3.56 µM
GI50 (TK-10 renal): 27.1 µM
TGI (TK-10 renal): > 100 µM
GI50 (LOX IMVI melanoma): 17.9 µM
TGI (LOX IMVI melanoma): 71.6 µM
GI50 (MCF7 breast): 9.45 µM
TGI (MCF7 breast): > 100 µM
GI50 (UO-31 renal): 97.3 µM
TGI (UO-31 renal): > 100 µM
GI50 (OVCAR-5 ovarian): 17.2 µM
TGI (OVCAR-5 ovarian): 34.9 µM
GI50 (SF-539 CNS): 12.4 µM
TGI (SF-539 CNS): 25.2 µM
GI50 (NCI-H226 lung): 19 µM
TGI (NCI-H226 lung): 90.7 µM
GI50 (DU-145 prostate): 30.1 µM
TGI (DU-145 prostate): > 100 µM
GI50 (HCT-15 colon): 4.68 µM
TGI (HCT-15 colon): 19.4 µM
GI50 (MDA-MB-231 breast): 16.4 µM
TGI (MDA-MB-231 breast): > 100 µM
GI50 (SK-MEL-28 melanoma): 14.5 µM
TGI (SK-MEL-28 melanoma): 69.5 µM
GI50 (MDA-MB-468 breast): 2.73 µM
TGI (MDA-MB-468 breast): 6.33 µM
GI50 (SW-620 colon): 5.53 µM
TGI (SW-620 colon): 17.9 µM
GI50 (RPMI-8226 leukemia): 4.9 µM
TGI (RPMI-8226 leukemia): 21.7 µM
GI50 (SF-295 CNS): 15.6 µM
TGI (SF-295 CNS): 62.7 µM
GI50 (SNB-19 CNS): 21.3 µM
TGI (SNB-19 CNS): 68.6 µM
GI50 (NCI-H23 lung): 12.4 µM
TGI (NCI-H23 lung): 36 µM
GI50 (K-562 leukemia): 1.26 µM
TGI (K-562 leukemia): 2.68 µM
GI50 (UACC-62 melanoma): 6.42 µM
TGI (UACC-62 melanoma): 24.6 µM
GI50 (SF-268 CNS): 19.8 µM
TGI (SF-268 CNS): 64.1 µM
GI50 (CAKI-1 renal): 25.7 µM
TGI (CAKI-1 renal): > 100 µM
GI50 (SR leukemia): 1.5 µM
TGI (SR leukemia): 2.99 µM
GI50 (MALME-3M melanoma): 7.48 µM
TGI (MALME-3M melanoma): 36.5 µM
GI50 (RXF 393 renal): 12.4 µM
TGI (RXF 393 renal): 34.2 µM
GI50 (UACC-257 melanoma): 17.2 µM
TGI (UACC-257 melanoma): 57.1 µM
GI50 (NCI-H522 lung): 4.45 µM
TGI (NCI-H522 lung): 15.5 µM
GI50 (NCI/ADR-RES ovarian): 5.77 µM
TGI (NCI/ADR-RES ovarian): 19.3 µM
GI50 (SN12C renal): 14.5 µM
TGI (SN12C renal): 28.3 µM
GI50 (NCI-H322M lung): 23.5 µM
TGI (NCI-H322M lung): 73.4 µM
GI50 (IGROV1 ovarian): 13.7 µM
TGI (IGROV1 ovarian): 44.3 µM
GI50 (HCC-2998 colon): 14.2 µM
TGI (HCC-2998 colon): 36.9 µM
GI50 (OVCAR-4 ovarian): 13.6 µM
TGI (OVCAR-4 ovarian): 50.8 µM
GI50 (HL-60(TB) leukemia): 2.63 µM
TGI (HL-60(TB) leukemia): 6.27 µM
GI50 (SNB-75 CNS): 10.9 µM
TGI (SNB-75 CNS): 26.8 µM
GI50 (MDA-MB-435 melanoma): 2.39 µM
TGI (MDA-MB-435 melanoma): 5.7 µM
GI50 (A498 renal): 13.2 µM
TGI (A498 renal): > 100 µM
GI50 (KM12 colon): 4.67 µM
TGI (KM12 colon): 33.9 µM
GI50 (M14 melanoma): 7.99 µM
TGI (M14 melanoma): 27.3 µM
GI50 (HOP-92 NSCLC): 19.5 µM
TGI (HOP-92 NSCLC): 68.6 µM
GI50 (CCRF-CEM leukemia): 4.56 µM
TGI (CCRF-CEM leukemia): 14.9 µM
GI50 (NCI-H460 NSCLC): 15.4 µM
TGI (NCI-H460 NSCLC): 37.4 µM
GI50 (COLO 205 colon): 9.84 µM
TGI (COLO 205 colon): 22.8 µM
GI50 (A549 NSCLC): 23.3 µM
TGI (A549 NSCLC): > 100 µM
GI50 (HS 578T breast): 13.6 µM
TGI (HS 578T breast): 29.2 µM
GI50 (EKVX NSCLC): 18.1 µM
TGI (EKVX NSCLC): > 100 µM
GI50 ([…]-0 renal): 18.3 µM
TGI (786-0 renal): 61.4 µM
GI50 (ACHN renal): 27.2 µM
TGI (ACHN renal): > 100 µM
GI50 (SK-MEL-5 melanoma): 4.46 µM
TGI (SK-MEL-5 melanoma): 16.2 µM
GI50 (BT-549 breast): 14 µM
TGI (BT-549 breast): 81.1 µM
GI50 (OVCAR-3 ovarian): 8.64 µM
TGI (OVCAR-3 ovarian): 28 µM
GI50 (HT29 colon): 7.73 µM
TGI (HT29 colon): 34.7 µM
GI50 (OVCAR-8 ovarian): 14.6 µM
TGI (OVCAR-8 ovarian): 28.4 µM
GI50 (PC-3 prostate): 21 µM
TGI (PC-3 prostate): 60.3 µM
